Literature values as cited in US20100047788A1, “METHOD AND KIT FOR DIAGNOSIS AND MONITORING OF THE TREATMENT OF CHRONIC TRIPANOSSOMIASIS AND CHAGAS DISEASE” (FUNDACÃO UNIVERSIDADE DE BRASÍLIA CDTCAMPUS UNIVER, priority 2006, published 2010).

Tested on: LINE-1
Details: background statement; taken as indication of non occurrence of the kDNA integration

Cc1cn([C@H]2C[C@H](N=[N+]=[N-])[C@@H](CO)O2)c(=O)[nH]c1=O [AZT]
effect on retrotransposition of LINE-1: prevented the retrotransposition of LINE-1
